According to patent EP0559700B1, “NOVEL PILOCARPINE DERIVATIVES AND PROCESS FOR THEIR PREPARATION” (Santen Oy, priority 1990, dated 1992):
Where two headings read alike, the source gives them in different places.

Columns and labels:
[1] = Stability of the compounds: buffer hydrolysis (half-times, shelf-life); format: physicochemical
Procedure: The stability of the test compounds were tested with buffer hydrolyses. The ionic strength (µ) of the buffers was 0.5, the pH-values used 4.2, 6.0, 7.4 and 9.0 and the temperatures used 37°C, 50 °C, 60 °C and 70 °C.
The half-times T½ calculated on basis of the degradation constant k obtained for each studied compound (T½=0.693/k; k = 2.303 x kk, wherein kk is the angular coefficient of the plot which illustrates the logarithm of the remaining ester as a function of time) in a buffer solution of said pH, are indicated in the Table I below, which values refer to half-times at 37°C.
The storage stability of the derivatives under different storage conditions may be estimated by determining the degradation constants at different temperatures and calculating the degradation constant k at the desired temperature from the equation of the plot corresponding to the Arrhenius equation (1), wherein log k is given as a function of [1/T]. Log k = Log A -(Ea)/(2.303R)x(1)/(T) [formula]
From the degradation constant (k) obtained at the desired temperature the shelf-life-time t10% (t10% = 0.104/k) which indicates the time during which 10% of the drug has degraded may be calculated. By way of example it may be mentioned that the t10%-time of O,O'-dipropionyl (1,4-xylylene) bispilocarpate at 4 °C is almost 500 days.

[2] = Lipophilicity: partition coefficient (octanol-buffer) and capacity factor by RP-HPLC; format: physicochemical; details: for chromatographic logP: reverse phase HPLC, 22°C, read-out: Capacity factor (22°C) k' (converted)
Text: The lipophilicity of the compounds were studied by determining the partition coefficients (P) of the compounds at a pH of 7.40. The measurements were made either in an octanol-buffer mixture by determining the concentration of the compound to be studied in the buffer phase by HPLC. The partition coefficients of the very lipophilic compounds were, however, determined by reverse phase (RP) liquid chromatography (HPLC) from the retention time (Beckmann 116 pump and 166 UV detector; Marathon autom. sample feeder). […] From the results it can be seen that the compounds of the invention are considerably more lipophilic than the pilocarpine.

[3] = Enzyme hydrolysis in plasma/buffer pH 7.4 mixture (80%-20%); format: in vitro ADME; details: for half-life: 80% plasma/buffer
Procedure: The half-times of enzyme hydrolysis of the novel bispilocarpates according to the invention and of known pilocarpic acid diesters were determined in a plasma/buffer pH 7.4-mixture (80%-20%) at 37°C. The degradation constants (k) for the compounds tested and determined from the plot showing the logarithm of remaining diester as a function of time and the half-lives T½ are shown in the Table II below. From the results it may be seen that in […] the stable test compound degrades under the influence of an enzyme (esterase) to a O,O'-dihydrogen bispilocarpate intermediate, which spontaneously degrades at pH 7.40 to pilocarpine. Consequently the effect of the bispilocarpate intermediate on the rate of formation of pilocarpine is very significant. The formation of pilocarpine was almost complete irrespective of the epimerization possibility of the intermediate. The amount of isopilocarpine formed varied from 0 to 10%, as also the pilocarpine formed epimerized, if the duration of hydrolysis was very long.

[4] = Corneal permeability in a diffusion chamber; format: in vitro ADME, rabbit
Text: The corneal permeability of pilocarpine hydrochloride and its most promising prodrug derivatives as evaluated from the tests described above were studied in a diffusion chamber, wherein the migration of the compound from the delivering phase (epithelium side) thorugh the cornea to the acceptor side (endothelium side) of the diffusion chamber. In the study, rabbit eye cornea was used. From the samples taken from the acceptor side of the diffusion chamber, both the concentration of the prodrug and the liberated drug were determined in the acceptor phase with HPLC. Thus the rate of degradation of the prodrug in the cornea was determined. The permeability coefficients (Papp, cm/s) calculated from the permeability rate (μmol/min), their […] deviations (RSD) and the number of tests, are given in the Table II below.

[5] = pKa-value determination by titration in a water-ethanol mixture (50%-50%); format: physicochemical; details: water-ethanol 50:50; titration in water-ethanol mixture (50%-50%)
[6] = Lipophilicity: partition coefficient (octanol-buffer) and capacity factor by RP-HPLC; format: physicochemical; details: pH 5.0
[7] = administered locally as eyedrops; cited from earlier work
[8] = buffer pH 6.00, ionic strength 0.5, 37°C, read-out: Half-times in buffers at 37°C, T½, pH 6.00 (converted)
[9] = buffer pH 9.00, ionic strength 0.5, 37°C, read-out: Half-times in buffers at 37°C, T½, pH 9.00 (converted)
[10] = pH 4.2, buffer pH 4.20, ionic strength 0.5, 37°C, read-out: Half-times in buffers at 37°C, T½, pH 4.20 (converted)
[11] = pH 7.4, buffer pH 7.40, ionic strength 0.5, 37°C, read-out: Half-times in buffers at 37°C, T½, pH 7.40 (converted)
[12] = plasma/buffer pH 7.4 (80%-20%), 37°C, read-out: half-times (T½) in plasma (80%), 37°C
[13] = plasma/buffer pH 7.4 (80%-20%), 37°C
[14] = rabbit eye cornea, diffusion chamber, epithelium side to endothelium side, read-out: Permeability coefficient Papp
[15] = determined from the equation log k'= 0.182 Log P - 0.4086 (RP-HPLC retention)
[16] = buffer, pH 4.2, 50 °C, pH 4.20, read-out: Chemical hydrolysis t½, pH 4.20 (converted)
[17] = buffer, pH 7.4, 50 °C, pH 7.40, read-out: Chemical hydrolysis t½, pH 7.40 (converted)
[18] = buffer, 50 °C, pH 6.00, read-out: Chemical hydrolysis t½, pH 6.00 (converted)

Compound | chromatographic logP ([2]; rp-hplc) | pKa [5] | half-life [1, 8] [days] | half-life [1, 9] [days] | half-life [1, 10] [days] | half-life [1, 11] [days] | half-life [3, 12] [days] | Degradation coefficient (k) in plasma (80%), 37°C [3, 13] [min⁻¹] | Papp [4, 14] [×10⁻⁶ cm/s] | further results
CC[C@H](C(=O)OCc1ccc(COC(=O)[C@@H](CC)[C@H](COC(C)=O)Cc2cncn2C)cc1)[C@H](COC(C)=O)Cc1cncn1C [Example 9, O,O'-Diacetyl (1,4-xylylene) bispilocarpate] | 0.146 | 6.03 |  |  |  |  |  |  |  | half-life ([1]; buffer, pH 4.2): 165 days; half-life ([1]; buffer, pH 6): 48.4 days; half-life ([1]; buffer, pH 7.4): 11.4 days; half-life ([1]; buffer, pH 9): 1.42 days; Partition coefficient log P ([2]; pH 7.4): 3.0432^1; Capacity factor (22°C) k' ([2]; rp-hplc): 1.3987; half-life ([3]; pH 7.4): 0.00625 days; Degradation coefficient (k) in plasma (80%), 37°C ([3]; pH 7.4): 0.0737 min⁻¹; Papp ([4]; rabbit): 9.3 ×10⁻⁶ cm/s
CCC(=O)OC[C@H](Cc1cncn1C)[C@H](CC)C(=O)OCc1ccc(COC(=O)[C@@H](CC)[C@H](COC(=O)CC)Cc2cncn2C)cc1 [Example 10, O,O'-Dipropionyl (1,4-xylylene) bispilocarpate] | 0.362 | 5.8 | 50.6 | 1.96 | 91.8 | 16.7 | 0.00417 | 0.1184 | 30.5 | shelf-life-time t10% (time during which 10% of the drug has degraded) ([1]; at 4 °C, calculated from the Arrhenius plot): ~500 days
CCCC(=O)OC[C@H](Cc1cncn1C)[C@H](CC)C(=O)OCc1ccc(COC(=O)[C@@H](CC)[C@H](COC(=O)CCC)Cc2cncn2C)cc1 [Example 11, O,O'-Dibutyryl (1,4-xylylene) bispilocarpate] | 0.603 | 6 | 46.4 | 5.71 | 250 | 7.38 | 0.00764 | 0.06149 | 21.5 | Partition coefficient log P [2, 15]: 5.5604^2
CCCCC(=O)OC[C@H](Cc1cncn1C)[C@H](CC)C(=O)OCc1ccc(COC(=O)[C@@H](CC)[C@H](COC(=O)CCCC)Cc2cncn2C)cc1 [Example 12, O,O'-Divaleryl (1,4-xylylene) bispilocarpate] | 0.868 | 6 |  | 0.292 |  |  | 0.00833 | 0.05734 | 18.2 | Partition coefficient log P [2, 15]: 7.0165^2
CC[C@H](C(=O)OCc1ccc(COC(=O)[C@@H](CC)[C@H](COC(=O)C2CC2)Cc2cncn2C)cc1)[C@H](COC(=O)C1CC1)Cc1cncn1C [Example 13, O,O'-Dicyclopronylcarbonyl (1,4-xylylene) bispilocarpate] | 0.392 | 6 | 352 | 14.1 | 2640 | 148 | 0.00972 | 0.04998 | 15.8 | Partition coefficient log P ([2]; determined with an octanol-buffer-mixture, pH 7.40, 22 °C): 4.2015^1
CC[C@H](C(=O)OCCCCCCOC(=O)[C@@H](CC)[C@H](COC(=O)C1CC1)Cc1cncn1C)[C@H](COC(=O)C1CC1)Cc1cncn1C [Example 20, O,O'-Dicyclopropylcarbonyl (1,6-hexylene) bispilocarpate] |  | 6 |  |  |  |  | 0.0104 |  |  | half-life [1, 16]: 134 days; half-life [1, 17]: 27.7 days; half-life [1, 18]: 142 days; logD [6]: 0.88
CC[C@H](C(=O)OCCCCCOC(=O)[C@@H](CC)[C@H](COC(=O)C1CC1)Cc1cncn1C)[C@H](COC(=O)C1CC1)Cc1cncn1C [Example 21, O,O'-Dicyclopropylcarbonyl (1,5-pentylene) bispilocarpate] |  |  |  |  |  |  | 0.00903 |  |  | half-life [1, 16]: 193 days; half-life [1, 17]: 23 days; half-life [1, 18]: 98.7 days; logD [6]: 0.401
CC[C@@H]1C(=O)OC[C@@H]1Cc1cncn1C [Pilocarpine, (3S-cis)-3-ethyl-dihydro-4-[(1-methyl-1H-imidazol-5-yl)methyl]-2(3H)-furanone] | -0.392 |  |  |  |  |  |  |  | 4.1 | pilocarpine dose absorbed by the eye [7]: about 1%; pilocarpine dose absorbed in the blood stream [7]: about 70%
CC[C@H](C(=O)OCc1ccccc1)[C@H](COC(C)=O)Cc1cncn1C [acetyl, benzyl, reference compound] |  |  | 144 | 3.29 | 320 | 22.8 | 0.0111 | 0.04353 | 11.7 | 
CC[C@H](C(=O)OCc1ccccc1)[C@H](COC(=O)c1ccccc1)Cc1cncn1C [benzoyl, benzyl, reference compound] |  |  | 203 | 4.62 | 444 | 85.1 | 0.0125 | 0.038 | 8.7 | 
CCC(=O)OC[C@H](Cc1cncn1C)[C@H](CC)C(=O)OCc1ccccc1 [propionyl, benzyl, reference compound] |  |  | 222 | 3.92 | 90.8 | 31.2 | 0.00417 | 0.108 | 14.3 | 
CCCCC(=O)OC[C@H](Cc1cncn1C)[C@H](CC)C(=O)OCc1ccccc1 [valeryl, benzyl, reference compound] |  |  |  | 12.6 | 356 | 48.7 | 0.00625 | 0.07876 | 11.5 | 
